Experimental findings from patent publication US20210238225A1, “PEPTIDOMIMETIC INHIBITORS OF THE PEPTIDYL-PROLYL CIS/TRANS ISOMERASE (PIN1)” (DANA-FARBER CANCER INSTITUTE, INC., priority 2018, published 2021) are described below.

Entries after “also recorded” stand apart in the source; their conditions may differ. Non-standard residues stand in square brackets, D forms with d. Residues, ends and D or L forms follow the SMILES beside them. *: point of attachment. 2Nal = N[C@@H](Cc1ccc2ccccc2c1)C(=O)O; Cit = NC(=O)NCCC[C@H](N)C(=O)O; Pip = O=C(O)[C@@H]1CCCCN1; ClAc = O=C(CCl)*; X1 = O=C(C1CO1)*

The term Ki denotes the dissociation constant of the complex between target and ligand, obtained from inhibition or displacement.

One test deals with Pin1 Cys 113 (Homo sapiens, UniProt Q13526). The test can be described thus: Covalent labeling (intact MS). Type of test: binding. The following applies: for Covalent? (In tact MS), % labeling: purified Pin1 with 5 μM inhibitor, 0-3 hr. How it is done: 5 μg of purified Pin1 protein in 50 μL of 20 mM HEPES pH 7.5 and 75 mM NaCl was incubated with 5 μM of respective Pin1 inhibitors for 0-3 hr. A Shimadzu XR HPLC was used to inject the entire sample onto a self-packed reverse-phase column (1/32 in outer diameter×500 μm inner diameter, 5 cm of POROS 50R2 resin). After desalting, protein was eluted with an HPLC gradient (0%-100% B in 4 min, A=0.2 M acetic acid in water, B=0.2 M acetic acid in acetonitrile, flow rate=10 μl/min) into a LTQ XL mass spectrometer (Thermo Fisher Scientific, San Jose, Calif., USA). LTQ XL MS spectra were acquired in centroid mode using the electron multipliers for ion detection. Mass spectra were deconvoluted using MagTran1.03b2 software (Zhang and Marshall, J. Am. Soc. Mass Spectrom. 9:225-233 (1998)).
Pin1 Cys 113, sequence (Q13526 whole entry): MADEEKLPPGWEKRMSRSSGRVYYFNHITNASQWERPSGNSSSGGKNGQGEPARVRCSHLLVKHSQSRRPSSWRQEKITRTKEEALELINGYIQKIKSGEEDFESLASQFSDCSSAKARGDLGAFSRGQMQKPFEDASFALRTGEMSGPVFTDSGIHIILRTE

The target in test [1] is T1, Pin1 (Homo sapiens, UniProt Q13526). In words: X-ray crystallography. The arrangement: A construct of full-length human Pin1 in a pET28 vector; made in house; host or cells: E. coli BL21 (DE3). How it is done: A construct of full-length human Pin1 in a pET28 vector was overexpressed in E. coli BL21 (DE3) in LB medium in the presence of […] of kanamycin. Cells were grown at 37° C. to an OD of 0.8, cooled to 17° C., induced with 500 μM isopropyl-1-thio-D-galactopyranoside, incubated overnight at 17° C., collected by centrifugation, and stored at −80° C. Cell pellets were sonicated in buffer A (50 mM hepes 7.5, 300 mM NaCl, 10% glycerol, 10 mM Imidazole, and 3 mM 2-mercaptoethanol (BME) and the resulting lysate was centrifuged at 30,000×g for 40 min. Ni-NTA beads (Qiagen) were mixed with lysate supernatant for 30 min and washed with buffer A. Beads were transferred to an FPLC-compatible column and the bound protein was washed with 15% buffer B (50 mM hepes 7.5, 300 mM NaCl, 10% glycerol, 300 mM imidazole, and 3 mM BME) and eluted with 100% buffer B. Thrombin was added to the eluted protein and incubated at 4° C. overnight. The sample was concentrated and passed through a Superdex® 200 10/300 column (GE healthcare) in a buffer containing 20 mM hepes 7.5, 150 mMNaCl, 5% glycerol, 3 mM DTT, and 1 mM tris(2-carboxyethyl)phosphine (TCEP). Fractions were pooled, concentrated to approximately 37 mg/ml and frozen at −80° C.
T1 sequence (Q13526 whole entry): as above
Apo protein at a final concentration of 1 mM was crystallized by sitting-drop (200 nL+200 nL) vapor diffusion at 20° C. in the following crystallization buffer: 3 M (NH4)2SO4, 100 mM BisTris-pH 7.0, 1% PEG400, and 1 mM DTT. A volume of 200 nL of 1 mM compound 2b-6 was added directly to crystals for soaking at 20° C. for 16 hrs. Crystals were transferred briefly into crystallization buffer containing 25% glycerol prior to flash-freezing in liquid nitrogen.
Diffraction data from complex crystals were collected at beamline 24ID-E of the NE-CAT at the Advanced Photon Source (Argonne National Laboratory). Data sets were integrated and scaled using XDS (Kabsch, Acta Crystallogr. D Biol. Crystallogr. D66: 133-144 (2010)). […]

Test [2] addresses T2, Pin1 (GST-Pin1) (Homo sapiens, UniProt Q13526). In words: Chymotrypsin-coupled PPIase assay, inhibition of isomerase activity. The following applies: 12 hours pre-incubation at 4° C.; Cheng-Prusoff equation; read-out: Ki, μM (PPlase Assay). Type of test: biochemical. How it is done:
Inhibition of Pin1 isomerase activity was determined using the chymotrypsin-coupled PPIase assay, using GST-Pin1 and Suc-Ala-pSer-Pro-Phe-pNA peptide substrate ([…]), as described previously (Yaffe et al., Science 275:1957-1960 (1997)). GST-Pin1 was pre-incubated with the indicated concentrations of compound for 12 hours at 4° C. in buffer containing 35 mM HEPES (pH 7.8), 0.2 mM DTT, and 0.1 mg/mL bovine serum albumin (BSA). Immediately before the assay was started, chymotrypsin (final concentration 6 mg/mL), followed by the peptide substrate (Suc-Ala-pSer-Pro-Phe-pNA peptide substrate, final concentration […]) was added. The Ki value obtained from the PPIase assay was derived from the Cheng-Prusoff equation, Ki=IC50/(1+S/Km), where Km is the Michaelis constant for the used substrate, S is the initial concentration of the substrate in the assay, and IC50 is the […] inhibitory concentration of the inhibitor.

Test [3] deals with T1, Pin1. In words: Lysate target engagement (pull down with biotinylated probes; competition assay). It counts as binding. The arrangement: endogenous in cells; host or cells: MDA-MB-231. The following applies: for Lysate Target Engagement?: TNBC-MDA-MB-231 lysate, biotin/dtb probes: pull down, others: competition, concentration under E5. How it is done:
(§1) TNBC-MDA-MB-231 cells were lysed in lysis buffer (50 mM Hepes pH 7.5, 150 mM NaCl, 1 mM ethylenediaminetetraacetic acid (EDTA), 10% v/v glycerol, 0.5% v/v NP-40, protease inhibitors (Roche)). After clarifying by centrifugation (14,000 rpm for 15 min at 4° C.), lysates were incubated with the indicated concentrations of candidate compound for 1 hour at 4° C. (500 μg of protein per sample, as determined by BCA). Lysates were then incubated with streptavidin agarose resin (30 μL of 1:1 beads: lysis buffer slurry) (Thermo Scientific™, cat. #20349) for 2 hours at 4° C. Beads were washed 4 times with 500 μL of washing buffer (50 mM Hepes, pH 7.5, 10 mM NaCl, 1 mM EDTA, 10% glycerol), then pelleted by centrifugation and dried. The beads were then boiled at 95° C. for 5 minutes in 30 μL of 2× LDS+10% β-mercaptoethanol. Lysates were probed for specified proteins by western blotting using the Bolt system (Life Technologies™).
as §1, with “mM EDTA,” for “mM ethylenediaminetetraacetic acid (EDTA),”, “by centrifugation,” for “by centrifugation (14,000 rpm for 15 min at 4° C.),”, “were pre-incubated” for “were incubated”, “of” for “of candidate”, “compound 18 overnight” for “compound for 1 hour”, “BCA). The lysates were then incubated with 1 μM of compound 2c (desthiobiotin probe) for 1 hour at 4° C.” for “BCA).”

Test [4] concerns the target T2, Pin1 (GST-Pin1). The test can be described thus: Fluorescence polarization (FP) assay, binding to Pin1. The note with it: competition with fluorescein-labeled peptide probe; 12 hours pre-incubation at 4° C.; Kenakin Ki equation; read-out: Ki, μM (FP Assay). A general note: In fluorescence polarisation assays a small probe gives low polarisation when free and higher when bound to something large.

For test [5], the target named is T1, Pin1. In words: Cellular target engagement, live cell biotin competition assay in TNBC MDA-MB-231 cells. The following applies: TNBC MDA-MB-231 cells, 5 hours treatment; concentration under E7. It counts as cell-based. The arrangement: endogenous in cells; host or cells: MDA-MB-231. A digest of the protocol: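 Cells treated 5 h with compound, then lysed; lysates incubated with 1 μM biotin probe compound 1 h at 4° C and pulled down on streptavidin agarose 2 h at 4° C. Bound Pin1 versus input detected by western blot.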

T2 sequence (Q13526 whole entry): as above

Consider `NC(=O)CC[C@H](NC(=O)[C@H](Cc1ccc2ccccc2c1)NC(=O)[C@@H]1CCCCN1C(=O)[C@H](CCC(=O)O)NC(=O)CCl)C(N)=O` [Compound 2b-3, (S)-4-(2-Chloroacetamido)-5-((S)-2-(((S)-1-(((S)-1,5-diamino-1,5-dioxopentan-2-yl)amino)-3-(naphthalen-2-yl)-1-oxopropan-2-yl)carbamoyl)piperidin-1-yl)-5-oxopentanoic acid] (ClAc-E[Pip][2Nal]Q-NH2), for which the “Covalent? (In tact MS), % labeling” value at Pin1 Cys 113 is “Yes (81%”. In addition, on Pin1 [1], the “X-Ray Crystal Structure?” value is given as “Yes”.
`N=C(N)NCCC[C@H](NC(=O)[C@H](Cc1ccc2ccccc2c1)NC(=O)[C@@H]1CCCCN1C(=O)[C@H](CCC(=O)O)NC(=O)CCl)C(N)=O` [Compound 2b-6, (S)-5-((S)-2-(((S)-1-(((S)-1-Amino-5-guanidino-1-oxopentan-2-yl)amino)-3-(naphthalen-2-yl)-1-oxopropan-2-yl)carbamoyl)piperidin-1-yl)-4-(2-chloroacetamido)-5-oxopentanoic acid] (ClAc-E[Pip][2Nal]R-NH2): the inhibitory constant (Ki) at Pin1 (GST-Pin1) [2] came to 0.04 µM. In addition, the “Pin1 covalent labeling time course (FIG. 3A)” value at Pin1 Cys 113 (over the course of 60 minutes) is listed as “rapidly labeled Pin1 Cysl 13”. For the same molecule, the “Covalent? (In tact MS), % labeling” value on Pin1 Cys 113 was “Yes (100%”. In addition, the “Lysate Target Engagement?” value at Pin1 [3] is “No”. In addition, at Pin1 [1], the “X-Ray Crystal Structure?” value is “Yes”. Further, the “binding mode in x-ray co-crystal structure (FIG. 4A)” value at Pin1 [1] (1.8 A resolution, crystal soaking) was “covalently bound to Pin1; also recorded: covalently bound to Cys113 in the PPIase active site”.
As to `NC(=O)NCCC[C@H](NC(=O)[C@H](Cc1ccc2ccccc2c1)NC(=O)[C@@H]1CCCCN1C(=O)[C@H](CCC(=O)O)NC(=O)CCl)C(N)=O` [Compound 2b-13, (S)-5-((S)-2-(((S)-1-(((S)-1-Amino-1-oxo-5-ureidopentan-2-yl)amino)-3-(naphthalen-2-yl)-1-oxopropan-2-yl)carbamoyl)piperidin-1-yl)-4-(2-chloroacetamido)-5-oxopentanoic acid] (ClAc-E[Pip][2Nal][Cit]-NH2), at Pin1 (GST-Pin1) [2], the Ki amounted to 0.021 µM. Further, the “Lysate Target Engagement?” value on Pin1 [3] is recorded as “Yes-Complete”. For the same molecule, the “Lysate Target Engagement? concentration stated for the engagement or pull down” value at Pin1 [3] (read with the E4 line of the same compound (complete, partial, probe pull down)) is on record as “at 10 μM”.
For the molecule `NC(=O)NCCC[C@H](NC(=O)[C@H](Cc1ccc2ccccc2c1)NC(=O)[C@@H]1CCCCN1C(=O)[C@H](CCC(=O)O)NC(=O)C1CO1)C(N)=O` (stereo partly drawn) [Compound 3b-1, (4S)-5-((S)-2-(((S)-1-(((S)-1-Amino-1-oxo-5-ureidopentan-2-yl)amino)-3-(naphthalen-2-yl)-1-oxopropan-2-yl)carbamoyl)piperidin-1-yl)-4-(oxirane-2-carboxamido)-5-oxopentanoic acid] (X1-E[Pip][2Nal][Cit]-NH2), on Pin1 (GST-Pin1) [4], the Ki was found to be 1.61 µM. Moreover, the “Covalent? (In tact MS), % labeling” value on Pin1 Cys 113 is “Yes (93%”. For the same molecule, the “Lysate Target Engagement?” value at Pin1 [3] is “No”. For the same molecule, the “Cellular Target Engagement?” value at Pin1 [5] is recorded as “No”.
